Data: paper doi:10.1101/2023.11.24.568596v1 (biorxiv, 2023)
Blank lines part the entries; values can stand above or below the compound they belong to.

Experiments:
Settings in all cases: binder
EphA2 = EphA2 (Homo sapiens, UniProt P29317)
EphB1 = molecular target: T1, EphB1 (Homo sapiens, UniProt P54762)
T1 sequence (P54762 1-984): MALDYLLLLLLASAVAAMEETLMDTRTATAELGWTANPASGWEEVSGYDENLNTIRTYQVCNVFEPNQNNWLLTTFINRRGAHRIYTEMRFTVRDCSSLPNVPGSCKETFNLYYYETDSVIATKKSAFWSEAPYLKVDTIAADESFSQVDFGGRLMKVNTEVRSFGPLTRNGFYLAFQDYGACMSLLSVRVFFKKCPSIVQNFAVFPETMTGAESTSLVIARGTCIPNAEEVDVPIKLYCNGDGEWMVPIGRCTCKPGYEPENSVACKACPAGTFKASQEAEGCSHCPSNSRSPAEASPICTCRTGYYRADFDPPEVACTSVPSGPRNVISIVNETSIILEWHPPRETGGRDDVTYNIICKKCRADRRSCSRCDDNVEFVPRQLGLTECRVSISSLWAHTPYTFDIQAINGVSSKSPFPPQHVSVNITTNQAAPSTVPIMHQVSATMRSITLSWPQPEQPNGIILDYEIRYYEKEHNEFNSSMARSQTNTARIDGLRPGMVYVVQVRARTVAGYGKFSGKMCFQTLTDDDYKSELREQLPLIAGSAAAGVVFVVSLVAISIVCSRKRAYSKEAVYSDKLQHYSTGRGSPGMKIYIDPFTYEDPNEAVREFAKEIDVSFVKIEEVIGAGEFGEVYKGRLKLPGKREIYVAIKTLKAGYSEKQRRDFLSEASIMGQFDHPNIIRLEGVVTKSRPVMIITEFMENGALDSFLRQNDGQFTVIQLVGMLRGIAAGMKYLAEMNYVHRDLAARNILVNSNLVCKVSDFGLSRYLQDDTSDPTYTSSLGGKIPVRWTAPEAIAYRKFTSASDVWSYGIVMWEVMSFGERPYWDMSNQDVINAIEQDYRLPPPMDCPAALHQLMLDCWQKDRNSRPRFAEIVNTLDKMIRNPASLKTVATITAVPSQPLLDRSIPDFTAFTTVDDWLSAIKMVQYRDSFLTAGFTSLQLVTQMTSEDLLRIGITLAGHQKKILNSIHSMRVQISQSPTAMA

JNK1 = JNK1 (Homo sapiens, UniProt P45983)
JNK2 = JNK2 (Homo sapiens, UniProt P45984)
MAP2K7 = molecular target: T2, MAP2K7 (Homo sapiens, UniProt O14733)
T2 sequence (O14733 1-419): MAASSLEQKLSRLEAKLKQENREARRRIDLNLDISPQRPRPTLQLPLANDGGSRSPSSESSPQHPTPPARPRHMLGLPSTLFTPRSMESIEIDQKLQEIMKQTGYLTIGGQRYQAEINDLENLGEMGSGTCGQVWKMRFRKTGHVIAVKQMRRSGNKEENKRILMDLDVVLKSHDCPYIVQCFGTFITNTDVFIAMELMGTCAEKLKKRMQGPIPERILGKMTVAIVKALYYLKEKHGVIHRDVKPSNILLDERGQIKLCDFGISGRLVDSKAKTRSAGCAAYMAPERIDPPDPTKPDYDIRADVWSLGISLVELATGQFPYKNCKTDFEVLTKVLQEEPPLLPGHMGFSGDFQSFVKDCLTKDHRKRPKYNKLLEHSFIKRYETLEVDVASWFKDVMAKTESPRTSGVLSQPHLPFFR

MAPKAPK2 = MAPKAPK2 (Homo sapiens, UniProt P49137)
MELK = MELK (Homo sapiens, UniProt Q14680)
NEK7 = NEK7 (Homo sapiens, UniProt Q8TDX7)
Chain of NEK7 (Q8TDX7 whole entry): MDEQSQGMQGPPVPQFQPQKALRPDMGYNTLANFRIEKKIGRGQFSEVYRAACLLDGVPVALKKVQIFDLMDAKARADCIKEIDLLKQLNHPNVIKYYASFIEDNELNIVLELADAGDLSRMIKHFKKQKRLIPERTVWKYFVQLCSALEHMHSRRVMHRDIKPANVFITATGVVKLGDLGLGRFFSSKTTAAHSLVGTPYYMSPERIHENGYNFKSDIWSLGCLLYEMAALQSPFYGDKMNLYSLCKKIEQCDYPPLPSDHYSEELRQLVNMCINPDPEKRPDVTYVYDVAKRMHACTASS

Chain of MELK (Q14680 whole entry): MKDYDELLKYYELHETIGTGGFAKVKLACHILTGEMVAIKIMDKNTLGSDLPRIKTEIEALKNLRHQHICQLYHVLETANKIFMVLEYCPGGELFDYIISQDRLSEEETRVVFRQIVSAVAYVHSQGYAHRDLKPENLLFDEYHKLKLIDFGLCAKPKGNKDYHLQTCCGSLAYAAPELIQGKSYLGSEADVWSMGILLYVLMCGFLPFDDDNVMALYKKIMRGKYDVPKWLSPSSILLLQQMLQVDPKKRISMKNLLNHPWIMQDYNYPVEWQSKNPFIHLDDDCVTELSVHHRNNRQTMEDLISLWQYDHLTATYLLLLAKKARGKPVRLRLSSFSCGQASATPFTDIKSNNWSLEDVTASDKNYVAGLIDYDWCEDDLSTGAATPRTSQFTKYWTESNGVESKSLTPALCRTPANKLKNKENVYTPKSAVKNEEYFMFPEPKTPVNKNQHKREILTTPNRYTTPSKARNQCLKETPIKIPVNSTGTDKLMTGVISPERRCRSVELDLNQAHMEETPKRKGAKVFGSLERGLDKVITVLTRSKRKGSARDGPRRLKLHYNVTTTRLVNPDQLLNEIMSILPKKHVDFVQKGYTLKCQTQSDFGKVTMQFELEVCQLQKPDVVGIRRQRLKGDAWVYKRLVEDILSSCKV
Chain of EphA2 (P29317 whole entry): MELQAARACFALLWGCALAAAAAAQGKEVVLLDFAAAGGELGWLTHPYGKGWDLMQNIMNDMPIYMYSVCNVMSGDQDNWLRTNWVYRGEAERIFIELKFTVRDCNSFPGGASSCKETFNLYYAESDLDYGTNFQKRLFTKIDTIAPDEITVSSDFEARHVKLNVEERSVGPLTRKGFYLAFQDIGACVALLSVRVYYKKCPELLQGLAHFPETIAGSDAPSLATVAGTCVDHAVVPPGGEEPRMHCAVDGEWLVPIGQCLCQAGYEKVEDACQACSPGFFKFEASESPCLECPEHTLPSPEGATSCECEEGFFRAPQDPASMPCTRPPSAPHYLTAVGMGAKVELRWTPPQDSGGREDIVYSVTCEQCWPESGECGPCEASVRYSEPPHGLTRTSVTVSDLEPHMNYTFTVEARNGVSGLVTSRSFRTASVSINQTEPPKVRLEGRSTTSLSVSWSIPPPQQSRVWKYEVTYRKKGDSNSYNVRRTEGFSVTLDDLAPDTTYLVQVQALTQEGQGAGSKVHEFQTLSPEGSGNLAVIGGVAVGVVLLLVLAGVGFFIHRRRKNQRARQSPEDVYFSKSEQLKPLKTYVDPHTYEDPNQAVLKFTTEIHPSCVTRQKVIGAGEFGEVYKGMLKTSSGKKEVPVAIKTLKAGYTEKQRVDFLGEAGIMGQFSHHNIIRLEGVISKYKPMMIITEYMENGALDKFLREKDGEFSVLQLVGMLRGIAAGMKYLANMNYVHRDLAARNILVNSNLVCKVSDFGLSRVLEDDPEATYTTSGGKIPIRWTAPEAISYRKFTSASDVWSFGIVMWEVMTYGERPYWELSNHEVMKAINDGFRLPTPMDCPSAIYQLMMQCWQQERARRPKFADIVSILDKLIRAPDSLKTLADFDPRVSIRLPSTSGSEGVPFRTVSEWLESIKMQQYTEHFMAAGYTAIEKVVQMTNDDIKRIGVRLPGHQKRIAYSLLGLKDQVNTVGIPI
Chain of JNK2 (P45984 whole entry): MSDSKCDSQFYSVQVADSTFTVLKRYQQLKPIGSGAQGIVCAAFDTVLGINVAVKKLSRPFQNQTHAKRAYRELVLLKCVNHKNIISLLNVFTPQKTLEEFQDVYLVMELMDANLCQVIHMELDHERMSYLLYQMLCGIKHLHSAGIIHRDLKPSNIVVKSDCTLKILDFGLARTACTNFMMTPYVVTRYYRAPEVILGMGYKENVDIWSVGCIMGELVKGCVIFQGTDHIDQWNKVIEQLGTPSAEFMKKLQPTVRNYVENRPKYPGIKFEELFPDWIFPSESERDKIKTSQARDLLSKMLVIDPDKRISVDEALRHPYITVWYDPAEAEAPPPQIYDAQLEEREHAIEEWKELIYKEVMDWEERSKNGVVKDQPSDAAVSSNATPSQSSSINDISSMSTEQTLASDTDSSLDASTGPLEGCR
Chain of MAPKAPK2 (P49137 whole entry): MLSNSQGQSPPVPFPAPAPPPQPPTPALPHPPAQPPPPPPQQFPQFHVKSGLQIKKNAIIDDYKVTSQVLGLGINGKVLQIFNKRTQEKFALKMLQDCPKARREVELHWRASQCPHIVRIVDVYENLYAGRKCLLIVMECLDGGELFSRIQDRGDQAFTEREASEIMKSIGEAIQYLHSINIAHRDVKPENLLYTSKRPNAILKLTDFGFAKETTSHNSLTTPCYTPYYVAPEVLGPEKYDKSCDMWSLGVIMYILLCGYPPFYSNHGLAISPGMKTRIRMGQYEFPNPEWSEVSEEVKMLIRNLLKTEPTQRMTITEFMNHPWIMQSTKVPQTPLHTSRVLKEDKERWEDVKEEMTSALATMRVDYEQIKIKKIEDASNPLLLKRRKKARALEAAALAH
Chain of JNK1 (P45983 whole entry): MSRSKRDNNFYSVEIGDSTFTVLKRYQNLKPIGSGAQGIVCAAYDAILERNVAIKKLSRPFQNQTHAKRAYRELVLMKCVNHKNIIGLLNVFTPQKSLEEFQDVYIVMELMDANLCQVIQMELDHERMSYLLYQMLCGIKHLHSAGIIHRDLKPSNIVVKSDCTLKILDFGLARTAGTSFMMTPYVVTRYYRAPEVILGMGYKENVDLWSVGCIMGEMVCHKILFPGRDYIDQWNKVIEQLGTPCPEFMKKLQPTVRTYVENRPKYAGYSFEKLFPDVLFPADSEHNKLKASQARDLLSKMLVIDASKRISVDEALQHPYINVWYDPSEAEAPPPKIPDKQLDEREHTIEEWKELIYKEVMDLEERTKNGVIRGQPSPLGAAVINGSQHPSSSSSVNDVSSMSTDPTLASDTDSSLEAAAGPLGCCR

ΔTm MR30 (27) (EphA2): 3.6 °C
ΔTm MR30 (27) (EphB1): 3.0 °C
ΔTm MR30 (27) (JNK1): 0.4 °C
ΔTm MR30 (27) (JNK2): 0.7 °C
ΔTm MR30 (27) (MAP2K7): 2.6 °C
ΔTm MR30 (27) (MAPKAPK2): -0.3 °C
ΔTm MR30 (27) (MELK): 5.8 °C
ΔTm MR30 (27) (NEK7): -0.4 °C
SMILES: Cc1cccc(-c2ccc(-c3cc4cnc(NCCCN5CCCC5=O)nc4n(CCCCN)c3=O)c(Cl)c2)n1 [compound 27, MR30]

ΔTm 28 (EphA2): 4.5 °C
ΔTm 28 (EphB1): 5.1 °C
ΔTm 28 (JNK1): 2.8 °C
ΔTm 28 (JNK2): 0.0 °C
ΔTm 28 (MAP2K7): 2.9 °C
ΔTm 28 (MAPKAPK2): -0.2 °C
ΔTm 28 (MELK): 1.8 °C
ΔTm 28 (NEK7): -0.7 °C
SMILES: Cc1cccc(-c2ccc(-c3cc4cnc(Nc5cc(C(F)(F)F)ccc5C)nc4n(CCCCN)c3=O)c(Cl)c2)n1 [compound 28, 8-(4-Aminobutyl)-6-(2-chloro-4-(6-methylpyridin-2-yl)phenyl)-2-((2-methyl-5-(trifluoromethyl)phenyl)amino)pyrido[2,3-d]pyrimidin-7(8H)-one]

ΔTm 29 (EphA2): 5.1 °C
ΔTm 29 (EphB1): 4.3 °C
ΔTm 29 (JNK1): 0.7 °C
ΔTm 29 (JNK2): -0.1 °C
ΔTm 29 (MAP2K7): 1.4 °C
ΔTm 29 (MAPKAPK2): -0.2 °C
ΔTm 29 (MELK): 6.5 °C
ΔTm 29 (NEK7): -0.2 °C
SMILES: Cc1cccc(-c2ccc(-c3cc4cnc(NCCCN5CCNCC5)nc4n(CCCCN)c3=O)c(Cl)c2)n1 [compound 29, 8-(4-Aminobutyl)-6-(2-chloro-4-(6-methylpyridin-2-yl)phenyl)-2-((3-(piperazin-1-yl)propyl)amino)pyrido[2,3-d]pyrimidin-7(8H)-one]

ΔTm 30 (EphA2): 7.7 °C
ΔTm 30 (EphB1): 6.5 °C
ΔTm 30 (JNK1): 2.8 °C
ΔTm 30 (JNK2): 4.3 °C
ΔTm 30 (MAP2K7): 6.2 °C
ΔTm 30 (MAPKAPK2): -0.3 °C
ΔTm 30 (MELK): 7.8 °C
ΔTm 30 (NEK7): -0.9 °C
SMILES: Cc1cccc(-c2ccc(-c3cc4cnc(Nc5ccc(CCCO)cc5)nc4n(CCCCN)c3=O)c(Cl)c2)n1 [compound 30, 8-(4-Aminobutyl)-6-(2-chloro-4-(6-methylpyridin-2-yl)phenyl)-2-((4-(3-hydroxypropyl)phenyl)amino)pyrido[2,3-d]pyrimidin-7(8H)-one]

ΔTm 31 (EphA2): 8.1 °C
ΔTm 31 (EphB1): 6.6 °C
ΔTm 31 (JNK1): 2.7 °C
ΔTm 31 (JNK2): 4.2 °C
ΔTm 31 (MAP2K7): 8.9 °C
ΔTm 31 (MAPKAPK2): -0.1 °C
ΔTm 31 (MELK): 6.5 °C
ΔTm 31 (NEK7): -1.6 °C
SMILES: Cc1cccc(-c2ccc(-c3cc4cnc(Nc5ccc(O)cc5)nc4n(CCCCN)c3=O)c(Cl)c2)n1 [compound 31, 8-(4-Aminobutyl)-6-(2-chloro-4-(6-methylpyridin-2-yl)phenyl)-2-((4-hydroxyphenyl)amino) pyrido[2,3-d]pyrimidin-7(8H)-one]

ΔTm 32 (EphA2): 7.9 °C
ΔTm 32 (EphB1): 6.6 °C
ΔTm 32 (JNK1): 1.9 °C
ΔTm 32 (JNK2): 3.3 °C
ΔTm 32 (MAP2K7): 7.3 °C
ΔTm 32 (MAPKAPK2): -0.1 °C
ΔTm 32 (MELK): 7.2 °C
ΔTm 32 (NEK7): -0.6 °C
SMILES: Cc1cccc(-c2ccc(-c3cc4cnc(Nc5ccc(C)c(O)c5)nc4n(CCCCN)c3=O)c(Cl)c2)n1 [compound 32, 8-(4-Aminobutyl)-6-(2-chloro-4-(6-methylpyridin-2-yl)phenyl)-2-((3-hydroxy-4-methylphenyl)amino)pyrido[2,3-d]pyrimidin-7(8H)-one]
